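How tested: cells in 96-well plates exposed to compound for 48 hours at five concentrations. GI50 = concentration required for 50% inhibition of growth. At the TGI there is no net growth.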 Where a SMILES comes first, the peptide text is derived from it. The star is where a group is joined. Boc = CC(C)(C)OC(=O)*
Legend:
Assay in all cases: inhibition of tumour cell growth, NCI panel, 48 h; in the data active means GI50 below about 0.43 µM; inactive means the rest
HOP-62 NSCLC = system: HOP-62 NSCLC
U251 CNS = system: U251 CNS
UO-31 renal = system: UO-31 renal
NCI-H460 lung = system: NCI-H460 lung
HL-60(TB) leukemia = system: HL-60(TB) leukemia
RPMI-8226 leukemia = system: RPMI-8226 leukemia
M14 melanoma = system: M14 melanoma
T-47D breast = system: T-47D breast
MDA-N = system: MDA-N
TK-10 renal = system: TK-10 renal

NC(Cc1c[nH]c2ccccc12)C(=O)O (stereo not drawn)
> 300 µM: TGI (HOP-62 NSCLC) | TGI (U251 CNS) | TGI (UO-31 renal) | TGI (NCI-H460 lung) | TGI (HL-60(TB) leukemia) | TGI (RPMI-8226 leukemia)

COc1ccc(Cl)cc1NC(=O)c1c(NC(=O)C(F)(F)C(F)(F)F)sc2c1CCCCC2
5.75 µM: TGI (UO-31 renal)
6.63 µM: TGI (HL-60(TB) leukemia)
7 µM: TGI (HOP-62 NSCLC)
5.49 µM: TGI (T-47D breast)
inactive: GI50 (HOP-62 NSCLC) 2.49 µM | GI50 (M14 melanoma) 2.66 µM | GI50 (U251 CNS) 1.89 µM | GI50 (UO-31 renal) 1.94 µM | GI50 (HL-60(TB) leukemia) 2.13 µM | GI50 (T-47D breast) 1.26 µM | GI50 (RPMI-8226 leukemia) 0.523 µM
> 100 µM: TGI (M14 melanoma) | TGI (U251 CNS)
3.21 µM: TGI (RPMI-8226 leukemia)

CC(=O)N1N=C(N)CC1=O
> 100 µM: TGI (HOP-62 NSCLC) | TGI (MDA-N) | TGI (M14 melanoma) | TGI (U251 CNS) | TGI (UO-31 renal) | TGI (NCI-H460 lung) | TGI (TK-10 renal) | TGI (HL-60(TB) leukemia) | TGI (T-47D breast)

C/C(=N\O)c1cccc(Nc2nc3ccccc3c3occc23)c1
27.6 µM: TGI (TK-10 renal)
61.1 µM: TGI (HL-60(TB) leukemia)
44.7 µM: TGI (T-47D breast)
27.9 µM: TGI (MDA-N)
31.8 µM: TGI (RPMI-8226 leukemia)
> 100 µM: TGI (U251 CNS)
29.7 µM: TGI (M14 melanoma)
21 µM: TGI (NCI-H460 lung)
32.8 µM: TGI (HOP-62 NSCLC)

CCOCC(NC(=O)C(CC(C)C)NC(=O)OC(C)(C)C)C(N)=O (stereo not drawn) (Boc-Leu-Ser(Et)-NH2; configuration not given here)
2.79 µM: TGI (U251 CNS)
> 100 µM: TGI (HOP-62 NSCLC) | TGI (MDA-N) | TGI (M14 melanoma) | TGI (UO-31 renal) | TGI (TK-10 renal) | TGI (HL-60(TB) leukemia) | TGI (T-47D breast)

Nn1c(SCC(=O)NCc2ccccc2)nc2ccccc2c1=O
> 100 µM: TGI (MDA-N) | TGI (M14 melanoma) | TGI (U251 CNS) | TGI (UO-31 renal) | TGI (NCI-H460 lung) | TGI (TK-10 renal) | TGI (T-47D breast) | TGI (RPMI-8226 leukemia)

CC(NC(=O)C(N)CC(=O)O)NC(=O)N1CCOCC1 (stereo not drawn)
> 100 µM: TGI (HOP-62 NSCLC) | TGI (MDA-N) | TGI (M14 melanoma) | TGI (U251 CNS) | TGI (UO-31 renal) | TGI (NCI-H460 lung) | TGI (TK-10 renal) | TGI (RPMI-8226 leukemia)

COc1ccc2c(c1)CCCN1CCc3cc(OC)c(OC)cc3C21 (stereo not drawn)
> 100 µM: TGI (HOP-62 NSCLC) | TGI (MDA-N) | TGI (M14 melanoma) | TGI (U251 CNS) | TGI (UO-31 renal) | TGI (TK-10 renal) | TGI (HL-60(TB) leukemia) | TGI (T-47D breast) | TGI (RPMI-8226 leukemia)

Cc1ccc(Nc2nc(=O)[nH]c(=O)[nH]2)cc1N=[N+]=[N-]
> 100 µM: TGI (HOP-62 NSCLC) | TGI (MDA-N) | TGI (M14 melanoma) | TGI (UO-31 renal) | TGI (TK-10 renal) | TGI (HL-60(TB) leukemia) | TGI (T-47D breast) | TGI (RPMI-8226 leukemia)

COC(=O)c1cc2c3c(cc(O)c2[nH]1)N(C(=O)C1Cc2cc(OC)c(OC)c(OC)c2N1)CC3CCl (stereo not drawn)
0.0109 µM: TGI (U251 CNS)
< 0.01 µM: TGI (TK-10 renal) | TGI (T-47D breast) | TGI (RPMI-8226 leukemia)
0.0102 µM: TGI (HL-60(TB) leukemia)
active: GI50 (U251 CNS) < 0.01 µM | GI50 (NCI-H460 lung) < 0.01 µM | GI50 (TK-10 renal) < 0.01 µM | GI50 (HL-60(TB) leukemia) < 0.01 µM | GI50 (T-47D breast) < 0.01 µM | GI50 (RPMI-8226 leukemia) < 0.01 µM
0.175 µM: TGI (NCI-H460 lung)

Cn1c2ccccc2n2c(=O)c3cccnc3c(C#N)c12
> 100 µM: TGI (HOP-62 NSCLC) | TGI (MDA-N) | TGI (U251 CNS) | TGI (NCI-H460 lung) | TGI (TK-10 renal) | TGI (T-47D breast) | TGI (RPMI-8226 leukemia)
